Test results published in ChEMBL document CHEMBL1130927, “Novel imidazole derivatives with subtype-selective antimuscarinic activity (2)” (Bioorg Med Chem Lett, 1998).

Assays:
[1] = tested on: Muscarinic acetylcholine receptors; M2 & M3; assay: Selectivity ratio was calculated between Kb values at M2 and M3 muscarinic receptors; assay type: protein assay; settings: Cavia porcellus
[2] = target: Muscarinic acetylcholine receptor M2 (Cavia porcellus); assay: Antimuscarinic activity against M2 receptor of guinea pig atrium; settings: Cardiac atrium
[3] = target: Muscarinic acetylcholine receptor M3 (Cavia porcellus) (UniProt Q8VH26); assay: Antimuscarinic activity against M3 receptor of guinea pig ileum; assay type: tissue-based
Sequence of Muscarinic acetylcholine receptor M3 (Cavia porcellus) (Q8VH26 1-587): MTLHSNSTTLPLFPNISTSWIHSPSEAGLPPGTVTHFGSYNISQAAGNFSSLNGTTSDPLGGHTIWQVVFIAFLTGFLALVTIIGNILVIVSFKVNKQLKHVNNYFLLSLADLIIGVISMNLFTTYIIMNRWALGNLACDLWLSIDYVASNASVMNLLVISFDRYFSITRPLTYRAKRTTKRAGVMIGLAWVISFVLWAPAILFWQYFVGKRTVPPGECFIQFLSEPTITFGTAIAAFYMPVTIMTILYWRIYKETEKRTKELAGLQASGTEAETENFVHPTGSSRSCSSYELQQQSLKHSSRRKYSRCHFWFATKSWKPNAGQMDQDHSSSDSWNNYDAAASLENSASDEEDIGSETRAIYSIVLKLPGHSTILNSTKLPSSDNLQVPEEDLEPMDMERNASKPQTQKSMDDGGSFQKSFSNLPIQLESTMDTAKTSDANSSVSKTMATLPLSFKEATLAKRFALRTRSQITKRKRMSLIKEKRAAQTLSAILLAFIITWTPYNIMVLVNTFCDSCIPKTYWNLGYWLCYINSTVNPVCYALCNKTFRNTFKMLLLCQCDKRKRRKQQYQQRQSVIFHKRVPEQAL

Row | Structure (SMILES) | Ratio [1] | Kb [2] | Kb [3]
1 | Cc1nccn1CC(C)C(C(N)=O)(c1ccccc1)c1ccccc1 (stereo unspecified) | 15.6 | 45.1 nM | 2.89 nM
2 | Cc1nccn1CCC(C(N)=O)(c1ccc(F)cc1)c1ccc(F)cc1 | 16.3 | 161 nM | 9.85 nM
3 | Cc1nccn1CCC(C(N)=O)(c1ccccc1)C1CCCCC1 (stereo unspecified) | 31.7 | 603 nM | 19 nM
4 | Cc1nccn1CCC(C)(C(N)=O)c1ccccc1 (stereo unspecified) |  |  | 1830 nM
5 | Cc1nccn1CCC(C(N)=O)C1c2ccccc2CCc2ccccc21 (stereo unspecified) |  |  | 2140 nM
6 | Cc1nccn1CCC(C(N)=O)(c1ccccc1)c1ccccn1 (stereo unspecified) | 17.5 | 50.1 nM | 2.86 nM
7 | Cc1nccn1CCC(C(N)=O)(c1ccccc1)C(C)C (stereo unspecified) |  |  | 394 nM
8 | Cc1nccn1CCC(C#N)(c1ccccc1)c1ccccc1 | 1.49 | 15.5 nM | 10.4 nM
9 | Cc1nccn1CCC(C(N)=O)C1c2ccccc2Oc2ccccc21 (stereo unspecified) |  |  | > 300 nM

Next, values leading:

Row | Ratio [1] | Kb [2] | Kb [3] | Structure (SMILES)
10 | 1.85 | 478 nM | 258 nM | Cc1nccn1CCC(C(=O)N(C)C)(c1ccccc1)c1ccccc1
11 | 3.3 | 83.8 nM | 25.4 nM | Cc1nccn1CCC(CO)(c1ccccc1)c1ccccc1
12 | 10.3 | 174 nM | 16.9 nM | Cc1nccn1C(C)CC(C(N)=O)(c1ccccc1)c1ccccc1 (stereo unspecified)
13 | 3 | 50.1 nM | 16.7 nM | Cc1nccn1CCC(O)(c1ccccc1)c1ccccc1
14 |  |  | > 1000 nM | COC(=O)C(CCn1ccnc1C)(c1ccccc1)c1ccccc1
15 | 9.96 | 710 nM | 71.3 nM | Cc1nccn1CCCCCC(C(N)=O)(c1ccccc1)c1ccccc1
16 | 1.14 | 5870 nM | 5150 nM | CNC(=O)C(CCn1ccnc1C)(c1ccccc1)c1ccccc1
17 | 30.3 | 743 nM | 24.6 nM | Cc1ccc(C(CCn2ccnc2C)(C(N)=O)c2ccccc2)cc1 (stereo unspecified)
18 | 17.6 | 20.1 nM | 1.14 nM | Cc1nccn1CCCC(C(N)=O)(c1ccccc1)c1ccccc1
19 | 3.39 | 148 nM | 43.7 nM | Cc1nccn1CCCCC(C(N)=O)(c1ccccc1)c1ccccc1
20 | 11.9 | 82.7 nM | 6.95 nM | Cc1nccn1CCC(C(=O)O)(c1ccccc1)c1ccccc1
21 | 13 |  |  | Cc1nccn1CCC(C(N)=O)(c1ccccc1)c1ccccc1
